US20200031811A1, “SUBSTITUTED MONO- AND POLYAZANAPHTHALENE DERIVATIVES AND THEIR USE” (Basilea Pharmaceutica International AG, priority 2015, published 2020)

Tests used:
[1] = test system: human pancreatic cancer cell line MiaPaCa2 (ATCC CRL-1420); assay: Cell growth assay (CellTiterGlo, 72 hours); type: cell-based; conditions: for IC50: MIA PaCa-2, MiaPaCa2 cells, 72 hours, read-out: IC50 MiaPaCa; for inhibition at 50 µM: MIA PaCa-2, at 50 μM; for inhibition at 50 µM / inhibition at 100 µM: read-out: Inhibition of MiaPaCa growth at indicated concentration; for inhibition at 100 µM: MIA PaCa-2, at 100 μM
Experimental: The inhibition of cell growth by the compounds was tested by exposing the human pancreatic cancer cell line MiaPaCa2 (ATCC CRL-1420) to the compounds. The assay was performed in 384 well clear bottom white microtiter plates (Greiner #781098). Each well was seeded with 10^3 cells in 20 μl of Dulbecco's modified Eagle's medium (Sigma D6796) supplied with 10% fetal calf scrum (Sigma F7524), 2.5% horse serum (Sigma H0146), 1% Penicillin-Streptomycin (Sigma P0781), 1% MEM nonessential amino acid solution 100× (Sigma M71459) and 1% 200 mM L-Glutamine (Sigma G7513) culture medium. After overnight incubation at 37° C. in 5% CO2 the compounds were added in the following concentrations: 100, 50, 20, 10, 5, 2, 1, 0.5, 0.2 and 0.1 μM. Each compound concentration was tested in quadruplicate. The incubation was then continued for 72 hours. After 72 hours the growth of the cells was assessed by the addition of the CellTiterGlo reagent (Promega G9242) as instructed by the provider. The luminescent signal was recorded on a SpectraMax M2 microplate reader. The signal obtained in wells containing cells cultivated in the absence of compound was set to 100% growth after subtracting the signal obtained in medium only wells. The % growth in each well was calculated by subtracting the medium only value and dividing through the 100% growth value. The IC50 for cell growth, the concentration of compound at which cell growth was reduced to 50%, was calculated with the GraFit6 software (Erythacus software).

MNK1 = biological target: T1, MNK1 (Homo sapiens, UniProt Q9BUB5); assay: MNK inhibition assay (Z-Lyte kinase assay, Ser/Thr 7 peptide); type: biochemical; conditions: for IC50: recombinant GST-MNK1, 3 hours at 31° C.
T1 construct: purchased Life Technologies or Carna Biosciences PV6023 or 02-145; host or cells: baculovirus infected insect cells
T1 sequence (Q9BUB5 whole entry): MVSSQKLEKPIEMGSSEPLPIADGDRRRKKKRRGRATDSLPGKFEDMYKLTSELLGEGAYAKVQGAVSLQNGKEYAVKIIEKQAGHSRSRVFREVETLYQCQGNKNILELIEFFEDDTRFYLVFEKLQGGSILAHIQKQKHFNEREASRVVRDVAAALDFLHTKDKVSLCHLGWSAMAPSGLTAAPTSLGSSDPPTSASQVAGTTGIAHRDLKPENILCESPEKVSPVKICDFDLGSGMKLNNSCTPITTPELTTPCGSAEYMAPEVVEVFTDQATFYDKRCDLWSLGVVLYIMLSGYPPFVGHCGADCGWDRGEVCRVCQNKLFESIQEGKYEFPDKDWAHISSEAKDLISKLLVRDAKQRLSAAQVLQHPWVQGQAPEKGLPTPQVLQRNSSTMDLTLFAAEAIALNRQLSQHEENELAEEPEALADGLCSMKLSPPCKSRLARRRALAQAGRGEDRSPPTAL
Text: For the measurement of the activity of the MNK1 kinase the Z-Lyte kinase assay system was used. The kinase activity of MNK1 can be quantified with the Z-Lyte kinase assay kit Ser/Thr 7 peptide (Life Technologies PV3180). The kit was utilized according to the instructions of the provider. A recombinant GST-MNK1 fusion protein produced in and purified from baculovirus infected insect cells was used as enzyme source (GST-MNK1 Life Technologies PV6023 or Carna Biosciences 02-145). It was verified that both sources of the MNK1 enzyme gave similar IC50 values with several compounds. The MNK1 enzyme assay was performed in 384 well round bottom black microtiter plates (Corning 3676). The kinase reaction was performed for 3 hours at 31° C. As instructed by the provider of the kit the amount of enzyme was chosen such that ˜30% of the substrate peptide was phosphorylated in control wells containing buffer only. The MNK1 inhibiting activity of compounds was tested by adding the compounds to the kinase reaction at a concentration of 10000, 5000, 2000, 1000, 500, 200, 100, 50 nM. Compounds with strong MNK1 inhibition were tested at 20, 10, 5, 2, 1 and 0.5 nM in addition. Each compound concentration was tested at least in duplicate. The % phosphorylation of the substrate peptide at each compound concentration was calculated as described in the assay manual. The fluorescent signals were recordes on Biotek Cytation 3 microplate reader. The IC50, the concentration that reduced substrate phosphorylation by 50% if compared to buffer only wells, was calculated with the Grafit 6 software (Erythacus software).

[2] = read-out: Inhibition of MNK1 activity at indicated concentration

Compound | IC50 [1] [µM] | IC50 (MNK1) [µM] | also measured
NCCCOCc1ccc2cncc(-c3ccc(NC(=O)Nc4ccccc4)cc3)c2c1 [Example 108, 1-[4-[6-(3-Aminopropoxymethyl)-4-isoquinolyl]phenyl]-3-phenyl-urea] | 15 | 3.51 | –
NC1CCN(Cc2ccc3cncc(-c4ccc5ncccc5c4)c3c2)CC1 [Example 195] | 16.2 | 0.797 | –
NCCCNCc1ccc2cncc(-c3ccc(O)cc3)c2c1 [Example 25] | 14.6 | 0.166 | –
Nc1ccc(-c2cncc3ccc(CN4CCC(N)CC4)cc23)cn1 [Example 17] | – | – | inhibition at 50 µM [1]: 61%; inhibition at 10 µM (MNK1; at 10 μM, read-out: Inhibition of MNK1 activity at indicated concentration): 100%
Nc1ncc(-c2ccc(O)cc2)c2cc(CN3CCC(N)CC3)ccc12 [Example 94] | – | 0.221 | inhibition at 50 µM [1]: 27%
NC1CCN(Cc2ccc3cncc(-c4cccc(NC(=O)Nc5ccccc5)c4)c3c2)CC1 [Example 32] | 8.4 | 2.41 | –
CC(=O)c1ccc(-c2cncc3ccc(CN4CCC(N)CC4)cc23)cc1 [Example 185] | 22 | 0.849 | –
Nc1cnccc1NCc1ccc2cncc(-c3cc4ccccc4o3)c2c1 [Example 76, N4-[[4-(Benzofuran-2-yl)-6-isoquinolyl]methyl]pyridine-3,4-diamine] | 4.75 | 0.0059 | –
NC1CCN(Cc2cc3c(-c4ccccc4)cncc3cc2Cl)CC1 [Example 251, 1-[(7-Chloro-4-phenyl-6-isoquinolyl)methyl]piperidin-4-amine] | 4.55 | 0.055 | –
NC1CCN(Cc2ccc3cncc(-c4ccc(CO)cc4)c3c2)CC1 [Example 181] | 22.8 | 0.522 | –
c1ccc2oc(-c3cncc4ccc(CN5CCCCC5)nc34)cc2c1 [Example 301] | 51.7 | 1.72 | –
Oc1ccc(-c2cncc3ccc(CNC4CCNC4)cc23)cc1 (stereo not shown) [Example 41] | – | 0.254 | inhibition at 100 µM [1]: 67%
NC1CCN(Cc2ccc3cncc(-c4ccc5cccnc5c4)c3c2)CC1 [Example 196] | 20.4 | 0.331 | –
Cn1nccc1OCc1ccc2cncc(-c3cc4ccccc4o3)c2c1 [Example 97, 4-(Benzofuran-2-yl)-6-[(2-methylpyrazol-3-yl)oxymethyl]isoquinoline] | 10.8 | 0.397 | –
COc1cc(CN2CCC(N)CC2)cc2c(-c3ccc(Cl)cc3)cncc12 [Example 288] | 4.61 | 0.241 | –
NC1CCN(Cc2ccc3cncc(-c4ccco4)c3c2)CC1 [Example 177, 1-[[4-(2-Furyl)-6-isoquinolyl]methyl]piperidin-4-amine] | 3.65 | 0.125 | –
NC1CCN(Cc2ccc3nncc(-c4ccccc4)c3c2)CC1 [Example 84] | – | 3.73 | inhibition at 100 µM [1]: 33%
Oc1ccc(-c2cncc3ccc(CN4CCOCC4)cc23)cc1 [Example 26] | 54.3 | – | inhibition at 1 µM (MNK1; [2]): 40%
NC1CCN(Cc2ccc3cncc(-c4ccc5ccccc5c4)c3c2)CC1 [Example 174] | 4.7 | 0.465 | –
CC(=O)Nc1cccc(-c2cncc3ccc(CN4CCC(N)CC4)cc23)c1 [Example 19] | 29.7 | – | inhibition at 1 µM (MNK1; [2]): 39%
Nc1ncc(-c2cccs2)c2cc(CN3CCC(N)CC3)cc(Cl)c12 [Example 287] | 4.74 | 0.142 | –
NC1CCN(Cc2ccc3cncc(-c4cc5cnccc5o4)c3c2)CC1 [Example 275] | 5.07 | 0.175 | –
c1ccc2oc(-c3cncc4ccc(Cn5ccc6cnccc65)cc34)cc2c1 [Example 189, 4-(Benzofuran-2-yl)-6-(pyrrolo[3,2-c]pyridin-1-ylmethyl)isoquinoline] | 8.39 | 0.011 | –
O=[N+]([O-])c1cnccc1NCc1ccc2cncc(-c3cc4ccccc4o3)c2c1 [Example 75, N-[[4-(Benzofuran-2-yl)-6-isoquinolyl]methyl]-3-nitro-pyridin-4-amine] | 18 | 2.13 | –
Cn1nccc1Oc1ccc2cncc(-c3cc4ccccc4o3)c2c1 [Example 96] | 6.14 | 3.99 | –
Nc1ncc(-c2ccccc2)c2cc(CN3CCC(N)CC3)c(Cl)cc12 [Example 264, 6-[(4-Amino-1-piperidyl)methyl]-7-chloro-4-phenyl-isoquinolin-1-amine] | 5.93 | 0.194 | –

Second part, led by results:

IC50 [1] [µM] | IC50 (MNK1) [µM] | Compound | also measured
10 | 0.147 | NC1CCN(Cc2cc3c(-c4cc5ccccc5o4)cncc3c(F)c2F)CC1 [Example 248] | –
8.21 | 0.618 | CN(C)C1CCN(Cc2ccc3cncc(-c4cc5ccccc5o4)c3c2)CC1 [Example 46, 1-[[4-(Benzofuran-2-yl)-6-isoquinolyl]methyl]-N,N-dimethyl-piperidin-4-amine] | –
5.59 | 0.384 | Nc1ccc(NCc2ccc3cncc(-c4cc5ccccc5o4)c3c2)cc1 [Example 50] | –
20.5 | 0.308 | NC1CCN(Cc2cc([N+](=O)[O-])c3cncc(-c4cc5ccccc5o4)c3c2)CC1 [Example 252, 1-[[4-(Benzofuran-2-yl)-8-nitro-6-isoquinolyl]methyl]piperidin-4-amine] | –
3.54 | 0.11 | NC1CCN(Cc2ccc3cncc(-c4cc5ccccc5o4)c3c2)CC1 [Example 1, 1-[[4-(Benzofuran-2-yl)-6-isoquinolyl]methyl]piperidin-4-amine] | –
7.86 | 0.044 | NC1CCN(Cc2cc3c(-c4cc5ccccc5o4)cncc3cc2F)CC1 [Example 249] | –
4.52 | 2.15 | N[C@@H]1CCN(Cc2ccc3cncc(-c4cc5ccccc5o4)c3c2)C[C@H]1F [Example 205] | –
2.74 | 0.164 | COc1cc(CN2CCC(N)CC2)cc2c(-c3cc4ccccc4o3)cncc12 [Example 242, 1-[[4-(Benzofuran-2-yl)-8-methoxy-6-isoquinolyl]methyl]piperidin-4-amine] | –
2.85 | 0.038 | Nc1ncc(-c2ccccc2)c2cc(O[C@H]3CC[C@H](N)CC3)cc(Cl)c12 [Example 319] | –
4.74 | 0.302 | COc1cc(O[C@H]2CC[C@H](N)CC2)cc2c(-c3cc4ccccc4o3)cncc12 [Example 314, Trans-4-[[4-(Benzofuran-2-yl)-8-methoxy-6-isoquinolyl]oxy]cyclohexanamine] | –
4.4 | 0.579 | NC1CCN(Cc2cc(Cl)c3cncc(-c4cc5ccccc5o4)c3c2)CC1 [Example 236, 1-[[4-(Benzofuran-2-yl)-8-chloro-6-isoquinolyl]methyl]piperidin-4-amine] | –
9.13 | 0.179 | N#Cc1cc(CN2CCC(N)CC2)cc2c(-c3cc4ccccc4o3)cncc12 [Example 306, 6-[(4-Amino-1-piperidyl)methyl]-4-(benzofuran-2-yl)isoquinoline-8-carbonitrile] | –
11.6 | 0.222 | c1ccc2oc(-c3cncc4ccc(CN5CCNCC5)cc34)cc2c1 [Example 224, 4-(Benzofuran-2-yl)-6-(piperazin-1-ylmethyl)isoquinoline] | –
4.75 | 0.638 | N[C@@H]1CCC[C@@H](Nc2ccc3cncc(-c4cc5ccccc5o4)c3c2)C1 [Example 291] | –
4.47 | 1.98 | N[C@H]1CC[C@H](Nc2ccc3c(=O)[nH]cc(-c4cc5ccccc5o4)c3c2)CC1 [Example 87, 6-[(4-Aminocyclohexyl)amino]-4-(benzofuran-2-yl)-2H-isoquinolin-1-one] | –
